Data as given in publication PMC8689225, “Cardiac ryanodine receptor N-terminal region biosensors identify novel inhibitors via FRET-based high-throughput screening” (The Journal of Biological Chemistry, 2021).
Read-outs that look alike come from different tables or passages of the source. Each block holds one compound with its values, some of them ahead of it.

How the values were obtained:
RyR = system: RyR; parameters: method as in PMID 27760856, PMID 32019969; conditions: cited from earlier work
mouse RyR2 NTR = biological target: T1, mouse RyR2 NTR (Mus musculus, UniProt E9Q401, K30C/K441C, form not given); assay: FLT-FRET dose-response with AC-NTR biosensor; assay type: binding; conditions: for saturation of FRET dose-response: decreased FLT; for saturation of FRET dose-response / ΔFLT: 0 to 100 μM; for decrease of donor-only FLT as share of the FLT change in the donor-acceptor sample: interference control, designated interfering compounds; for ΔFLT: CPNQ/corbadrine decrease FLT, FA/tacrolimus increase FLT
T1 sequence (E9Q401 1-547 K30C/K441C): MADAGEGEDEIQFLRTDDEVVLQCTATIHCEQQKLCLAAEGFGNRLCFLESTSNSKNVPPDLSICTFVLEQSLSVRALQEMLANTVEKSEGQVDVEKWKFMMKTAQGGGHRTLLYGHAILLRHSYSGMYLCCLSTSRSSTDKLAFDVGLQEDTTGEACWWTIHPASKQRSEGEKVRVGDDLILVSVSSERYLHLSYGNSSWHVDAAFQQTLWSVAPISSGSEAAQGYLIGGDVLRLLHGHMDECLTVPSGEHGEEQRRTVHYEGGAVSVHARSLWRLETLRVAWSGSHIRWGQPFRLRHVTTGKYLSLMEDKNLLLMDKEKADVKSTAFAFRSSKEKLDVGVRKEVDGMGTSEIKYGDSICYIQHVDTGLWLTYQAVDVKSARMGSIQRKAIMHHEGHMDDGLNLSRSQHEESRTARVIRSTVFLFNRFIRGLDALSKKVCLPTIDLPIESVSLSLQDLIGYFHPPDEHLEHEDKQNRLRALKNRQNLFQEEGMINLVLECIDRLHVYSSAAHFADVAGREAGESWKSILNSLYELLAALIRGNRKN
From the text: The NTR of mouse RyR2 (residues 1–547) was cloned and expressed as previously described ([27]). The DNA construct contains a 6×His tag, a maltose-binding protein (MBP) tag, and a tobacco etch virus (TEV) protease cleavage site. The seven native solvent-exposed cysteine residues were substituted with alanine residues, and two constructs were engineered with Cys substitutions at surface residues R383 and K441 (in the B and C domains, respectively; termed BC) and at K30 and K441 (in the A and C domains, respectively; termed AC) for labeling with spectroscopic probes such as appropriate donor–acceptor fluorophores for FRET (for the purpose of this report, these are considered the WT forms of AC and BC). A variant of the BC construct corresponding to the disease-associated mutant (R420Q) was also prepared. For this site-directed mutagenesis work, we used the QuikChange (Stratagene) and Phusion High-Fidelity PCR (Thermo Fisher Scientific) kits. The WT-NTR, R420Q-NTR, AC- and BC-NTR, AC- and BC-R420Q-NTR protein constructs were expressed in Escherichia coli Rosetta (DE3) pLacI cells at 18 °C and purified with a protocol adapted from previously published work ([26]). An amylose column was first applied after the cells were lysed by ultrasonication. The protein in the elution was then cleaved using TEV protease. The cleaved crude protein went through the second amylose column to separate from the MBP and then followed by a Superdex S-200 size exclusion column in a buffer consisting of 250 mM KCl, 10 mM HEPES, and 14 mM β-mercaptoethanol (pH 7.4). The NTR protein (3 μM) was then incubated in 10 mM HEPES, 250 mM KCl (pH 7.4, 2 h, 21 °C) with the fluorescent probes Alexa Fluor 488 maleimide (AF488, donor; 40 μM) and Alexa Fluor 568 maleimide (AF568, acceptor; 60 μM). The maleimide of the dye reacts with the thiols the Cys residues engineered into NTR, forming a covalently labeled protein. The Alexa dyes were added last to the reaction mixture, from 10 mM DMSO stock solutions. This reaction is not selective to one site (K30C or K441C), and we anticipate that there is a mixed population with K30C or K441C labeled with either AF488 (donor) or AF568 (acceptor). We focused on maximizing the fraction containing donor–acceptor pairs, thus maximizing FRET efficiency and the precision for detecting a change in structure as an indication that a compound interacts with the NTR biosensor. The labeling efficiency was determined by comparing the molar concentration of the bound dye, determined from UV-Vis absorbance, to the protein concentration, determined from gel densitometry. Essentially complete labeling was confirmed from electrospray ionization mass spectrometry. CD spectra of the WT-NTR and mutant R420Q-NTR constructs before and after labeling were recorded using a JASCO J-815 CD spectrometer (JASCO), confirming similar folding (Fig. S1).
The 1536-well assay plates were prepared as described in our previous reports ([21]). The LOPAC (Sigma-Aldrich) collection received in 96-well plates was reformatted into 384-well polypropylene intermediate plates (Greiner Bio-One) using a multichannel liquid handler, BioMek FX (Beckman Coulter), then transferred to 384-well Echo Qualified source plates (Labcyte Inc). Assay plates were prepared as previously described ([20]). On screening days, these plates were thawed out and were loaded with labeled NTR (5 μl, 20 nM final concentration) using a Multidrop Combi automated sample dispenser.
HTS measurements were conducted in a prototype top-read FLT plate reader (FLT-PR, Fluorescence Innovations, Inc), which reads each 1536-well plate in ∼3 min ([63], [64]). AF488 donor fluorescence was excited with a 473 nm microchip laser from Concepts Research Corporation, and the emission signal was split into two channels by a dichroic mirror and acquired with 517 ± 10 nm (channel 1) and 535 ± 7 nm band-pass filters (channel 2) (Semrock). […]

RyR2 = biological target: T2, RyR2 (Sus scrofa, UniProt A0A5G2R1W3); assay: [3H]ryanodine binding to cardiac SR (CSR) vesicles; assay type: biochemical, pig; conditions: for EC50: Table S4, read-out: EC50, [3H]ryanodine binding, cardiac SR; for effect on [3H]ryanodine binding to RyR2: cardiac SR
T2 construct: from tissue; host or cells: porcine cardiac left ventricle, crude SR vesicles
Procedure: (§1) Crude sarcoplasmic reticulum membrane vesicles were isolated from porcine longissimus dorsi muscle and porcine cardiac left ventricle tissue by differential centrifugation of homogenized tissue, as established previously ([65]). Skeletal heavy SR (HSR) vesicles, which are enriched with RyR1, were isolated by fractionation of crude skeletal SR vesicles using a discontinuous sucrose gradient, in accordance with our published work ([65]). All vesicles were flash-frozen and stored at −80 °C.
(§2) In 96-well plates, skeletal SR membranes (HSR, 1 mg/ml) and cardiac SR membranes (CSR, 3 mg/ml) were preincubated with 1% DMSO or hit compound for 30 min at 22 °C in a solution containing 150 mM KCl, 5 mM GSH, 1 μg/ml Aprotinin/Leupeptin, 1 mM EGTA, and 65 μM or 1.02 mM CaCl2 (as determined by MaxChelator to yield 30 nM or 30 μM of free Ca^2+, respectively), 0.1 mg/ml of BSA, and 20 mM K-PIPES (pH 7.0). Nonspecific [^3H]ryanodine binding to SR was assessed by addition of 40 μM nonradioactively labeled ryanodine. Maximal [^3H]ryanodine binding was assessed by addition of 5 mM adenylyl-imidodiphosphate (AMP-PNP), and in the case of CSR, 20 mM caffeine was added. These control samples were each loaded over four wells per plate. Binding of [^3H]ryanodine (7.5 and 10 nM for CSR and HSR, respectively) was determined following a 3 h incubation at 37 °C and filtration through grade GF/B glass microfiber filters (Brandel Inc) using a Brandel Harvester. In 4 ml of Ecolite scintillation cocktail (MP biomedicals), [^3H]ryanodine retained on the filter was counted using a Beckman LS6000 scintillation counter.

RyR1 = biological target: T3, RyR1 (Sus scrofa, UniProt P16960); assay: [3H]ryanodine binding to skeletal SR (HSR) vesicles; assay type: biochemical, pig; conditions: for EC50: Table S4, read-out: EC50, [3H]ryanodine binding, skeletal HSR; for maximum inhibitory effect on [3H]ryanodine binding / effect on [3H]ryanodine binding to RyR1: skeletal SR; for maximum inhibitory effect on [3H]ryanodine binding: 30 nM Ca2+; for effect on [3H]ryanodine binding to RyR1: 30 μM Ca2+
T3 construct: from tissue; host or cells: porcine longissimus dorsi muscle, heavy SR vesicles
T3 sequence (P16960 whole entry): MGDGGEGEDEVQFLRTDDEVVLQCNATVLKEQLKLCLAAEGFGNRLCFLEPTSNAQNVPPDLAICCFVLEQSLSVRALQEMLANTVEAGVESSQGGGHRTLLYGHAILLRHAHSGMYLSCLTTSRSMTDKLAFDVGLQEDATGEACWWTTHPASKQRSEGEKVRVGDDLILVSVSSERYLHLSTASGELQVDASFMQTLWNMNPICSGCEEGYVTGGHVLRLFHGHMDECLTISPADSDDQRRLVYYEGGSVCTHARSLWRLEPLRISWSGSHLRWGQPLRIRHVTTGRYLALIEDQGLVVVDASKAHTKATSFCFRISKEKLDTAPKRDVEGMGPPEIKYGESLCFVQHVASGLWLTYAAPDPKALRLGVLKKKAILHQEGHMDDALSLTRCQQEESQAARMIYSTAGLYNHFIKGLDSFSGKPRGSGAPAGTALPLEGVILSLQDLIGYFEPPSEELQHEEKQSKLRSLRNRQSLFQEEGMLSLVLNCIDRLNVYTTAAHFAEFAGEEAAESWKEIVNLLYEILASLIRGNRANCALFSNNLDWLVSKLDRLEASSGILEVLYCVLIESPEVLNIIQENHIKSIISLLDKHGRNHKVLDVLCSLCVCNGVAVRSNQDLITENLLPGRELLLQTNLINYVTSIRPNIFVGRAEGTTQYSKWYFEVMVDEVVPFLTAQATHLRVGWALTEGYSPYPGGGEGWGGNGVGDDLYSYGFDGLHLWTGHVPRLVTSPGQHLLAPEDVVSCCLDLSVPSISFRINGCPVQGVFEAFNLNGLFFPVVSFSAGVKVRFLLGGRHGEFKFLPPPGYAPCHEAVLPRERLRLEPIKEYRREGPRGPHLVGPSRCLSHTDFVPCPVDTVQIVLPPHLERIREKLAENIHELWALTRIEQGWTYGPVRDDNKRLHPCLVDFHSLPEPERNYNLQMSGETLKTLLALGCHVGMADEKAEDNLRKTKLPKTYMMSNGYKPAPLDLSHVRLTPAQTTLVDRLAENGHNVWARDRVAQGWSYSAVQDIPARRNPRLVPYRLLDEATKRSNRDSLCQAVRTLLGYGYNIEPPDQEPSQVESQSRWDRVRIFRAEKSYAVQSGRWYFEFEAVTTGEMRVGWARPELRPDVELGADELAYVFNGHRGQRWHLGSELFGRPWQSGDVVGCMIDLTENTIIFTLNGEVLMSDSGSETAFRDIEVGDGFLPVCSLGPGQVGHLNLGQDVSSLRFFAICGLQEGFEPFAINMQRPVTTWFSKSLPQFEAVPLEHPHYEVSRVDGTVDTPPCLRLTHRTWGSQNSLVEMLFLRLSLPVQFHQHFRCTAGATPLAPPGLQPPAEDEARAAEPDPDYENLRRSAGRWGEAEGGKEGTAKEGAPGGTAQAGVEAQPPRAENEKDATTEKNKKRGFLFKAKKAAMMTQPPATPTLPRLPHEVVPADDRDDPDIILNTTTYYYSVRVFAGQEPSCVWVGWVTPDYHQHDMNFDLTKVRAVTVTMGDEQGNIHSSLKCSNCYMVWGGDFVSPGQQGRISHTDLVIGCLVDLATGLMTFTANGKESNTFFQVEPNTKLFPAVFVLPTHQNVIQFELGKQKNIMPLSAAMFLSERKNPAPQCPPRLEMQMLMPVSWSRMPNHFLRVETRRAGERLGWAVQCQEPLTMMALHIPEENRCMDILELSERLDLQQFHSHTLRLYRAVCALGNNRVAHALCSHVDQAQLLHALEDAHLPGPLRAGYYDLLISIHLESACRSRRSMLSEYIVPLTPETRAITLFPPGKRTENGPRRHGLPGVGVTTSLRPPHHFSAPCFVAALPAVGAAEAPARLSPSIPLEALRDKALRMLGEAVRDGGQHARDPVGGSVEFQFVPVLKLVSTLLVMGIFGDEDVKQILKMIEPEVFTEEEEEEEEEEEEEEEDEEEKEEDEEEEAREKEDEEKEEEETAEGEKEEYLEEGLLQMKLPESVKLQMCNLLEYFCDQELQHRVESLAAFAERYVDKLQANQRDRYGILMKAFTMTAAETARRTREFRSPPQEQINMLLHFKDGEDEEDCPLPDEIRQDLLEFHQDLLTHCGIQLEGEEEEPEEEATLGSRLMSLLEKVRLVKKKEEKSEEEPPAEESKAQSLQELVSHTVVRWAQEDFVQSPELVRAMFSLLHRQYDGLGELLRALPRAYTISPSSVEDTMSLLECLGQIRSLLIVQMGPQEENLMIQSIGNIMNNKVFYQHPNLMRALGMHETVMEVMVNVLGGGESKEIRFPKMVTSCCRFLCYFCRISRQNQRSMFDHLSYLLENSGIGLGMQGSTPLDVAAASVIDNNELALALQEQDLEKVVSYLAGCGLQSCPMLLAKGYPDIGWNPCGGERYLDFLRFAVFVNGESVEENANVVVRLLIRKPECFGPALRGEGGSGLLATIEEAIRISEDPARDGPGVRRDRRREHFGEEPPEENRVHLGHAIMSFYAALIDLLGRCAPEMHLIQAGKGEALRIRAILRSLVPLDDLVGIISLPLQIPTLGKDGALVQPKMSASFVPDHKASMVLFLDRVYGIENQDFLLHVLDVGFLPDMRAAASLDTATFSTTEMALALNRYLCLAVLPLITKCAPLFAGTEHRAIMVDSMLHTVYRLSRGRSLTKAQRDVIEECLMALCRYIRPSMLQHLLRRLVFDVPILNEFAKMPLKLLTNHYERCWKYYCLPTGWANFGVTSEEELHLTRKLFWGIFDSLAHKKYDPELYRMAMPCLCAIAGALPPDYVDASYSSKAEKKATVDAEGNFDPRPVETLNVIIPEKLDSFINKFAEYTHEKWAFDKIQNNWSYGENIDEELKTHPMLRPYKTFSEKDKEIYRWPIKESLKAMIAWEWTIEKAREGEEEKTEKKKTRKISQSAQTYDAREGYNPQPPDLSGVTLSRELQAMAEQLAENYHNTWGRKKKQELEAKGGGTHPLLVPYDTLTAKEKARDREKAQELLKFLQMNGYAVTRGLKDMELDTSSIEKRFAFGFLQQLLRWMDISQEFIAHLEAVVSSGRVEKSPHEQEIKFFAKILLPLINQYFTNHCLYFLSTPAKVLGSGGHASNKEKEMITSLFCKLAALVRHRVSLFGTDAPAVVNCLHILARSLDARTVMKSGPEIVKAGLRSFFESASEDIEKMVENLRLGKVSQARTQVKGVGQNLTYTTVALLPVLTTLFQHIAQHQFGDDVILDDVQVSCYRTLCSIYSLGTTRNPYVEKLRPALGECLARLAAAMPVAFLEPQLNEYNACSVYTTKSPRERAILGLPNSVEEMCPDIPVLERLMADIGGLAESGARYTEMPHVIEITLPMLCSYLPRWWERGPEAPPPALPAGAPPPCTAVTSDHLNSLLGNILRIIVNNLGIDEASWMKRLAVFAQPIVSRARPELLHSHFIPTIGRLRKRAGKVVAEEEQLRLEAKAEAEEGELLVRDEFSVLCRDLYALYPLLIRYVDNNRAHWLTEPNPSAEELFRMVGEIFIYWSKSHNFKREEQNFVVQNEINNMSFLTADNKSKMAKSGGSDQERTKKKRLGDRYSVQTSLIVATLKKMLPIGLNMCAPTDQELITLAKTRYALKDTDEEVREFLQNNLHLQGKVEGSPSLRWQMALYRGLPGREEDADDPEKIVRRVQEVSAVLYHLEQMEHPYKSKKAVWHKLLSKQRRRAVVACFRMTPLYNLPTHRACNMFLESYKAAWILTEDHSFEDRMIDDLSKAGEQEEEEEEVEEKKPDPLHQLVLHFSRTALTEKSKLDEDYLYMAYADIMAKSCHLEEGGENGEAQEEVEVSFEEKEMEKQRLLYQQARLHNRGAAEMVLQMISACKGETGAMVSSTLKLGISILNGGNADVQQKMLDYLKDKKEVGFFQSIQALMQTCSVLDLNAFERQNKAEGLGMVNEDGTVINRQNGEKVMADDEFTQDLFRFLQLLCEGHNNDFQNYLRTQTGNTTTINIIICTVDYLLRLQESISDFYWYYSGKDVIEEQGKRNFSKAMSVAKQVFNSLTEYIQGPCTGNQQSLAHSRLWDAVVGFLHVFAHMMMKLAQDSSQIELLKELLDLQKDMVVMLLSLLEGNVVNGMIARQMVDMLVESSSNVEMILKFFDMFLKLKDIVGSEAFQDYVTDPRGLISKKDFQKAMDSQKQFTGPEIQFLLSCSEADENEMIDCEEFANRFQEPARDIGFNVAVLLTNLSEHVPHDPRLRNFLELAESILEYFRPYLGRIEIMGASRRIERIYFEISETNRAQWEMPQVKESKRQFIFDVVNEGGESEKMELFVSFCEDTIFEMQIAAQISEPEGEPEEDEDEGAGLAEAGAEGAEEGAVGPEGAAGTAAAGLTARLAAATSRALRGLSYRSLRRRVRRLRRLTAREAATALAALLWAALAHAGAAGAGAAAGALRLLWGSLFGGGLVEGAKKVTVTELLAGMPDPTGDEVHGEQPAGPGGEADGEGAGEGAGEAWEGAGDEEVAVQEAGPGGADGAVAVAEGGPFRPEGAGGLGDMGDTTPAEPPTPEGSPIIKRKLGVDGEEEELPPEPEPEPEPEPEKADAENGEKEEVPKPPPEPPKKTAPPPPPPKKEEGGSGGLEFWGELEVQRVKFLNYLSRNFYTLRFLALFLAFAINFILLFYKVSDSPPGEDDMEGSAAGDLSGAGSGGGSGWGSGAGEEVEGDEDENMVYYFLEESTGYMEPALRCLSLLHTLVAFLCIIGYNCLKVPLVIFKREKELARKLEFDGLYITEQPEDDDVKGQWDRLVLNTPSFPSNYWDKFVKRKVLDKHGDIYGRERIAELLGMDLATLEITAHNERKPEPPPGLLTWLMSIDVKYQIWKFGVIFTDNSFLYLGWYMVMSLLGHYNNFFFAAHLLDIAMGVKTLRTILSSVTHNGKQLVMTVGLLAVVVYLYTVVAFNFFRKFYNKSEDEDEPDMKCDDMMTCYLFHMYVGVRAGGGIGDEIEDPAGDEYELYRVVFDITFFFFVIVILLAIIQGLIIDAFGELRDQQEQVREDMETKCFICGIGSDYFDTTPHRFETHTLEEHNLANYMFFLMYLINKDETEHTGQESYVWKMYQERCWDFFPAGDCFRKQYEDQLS
Procedure: as §1, §2

[1] = AC-NTR biosensor, Hill fit, Table S4, read-out: EC50, FRET dose-response

EC50 (mouse RyR2 NTR; hits that increased FLT, read-out: EC50 (FRET dose-response)): < 1000 nM
Structure (SMILES): Nc1ccc(-c2nc3ccc(-c4nc5ccc(N)cc5[nH]4)cc3[nH]2)cc1 [Ro 90-7501, 2'-(4-Aminophenyl)-1H,1'H-2,5'-bibenzimidazol-5-amine]
effect on RyR (RyR): inhibitory

Structure (SMILES): CN(C)c1ccccc1CN1CCCN(Cc2ccccc2N(C)C)C1c1ccncc1 [GANT61, 2-[[3-[[2-(dimethylamino)phenyl]methyl]-2-pyridin-4-yl-1,3-diazinan-1-yl]methyl]-N,N-dimethylaniline]
EC50 (RyR2; [Ca2+] 30 nM): 4 nM | EC50 (RyR2; [Ca2+], 30 µM): 17300 nM | effect on [3H]ryanodine binding to RyR2 (RyR2; 30 μM Ca2+): inhibitor at concentration >1 μM | EC50 (mouse RyR2 NTR; [1]): 15800 nM | saturation of FRET dose-response (mouse RyR2 NTR): did not reach saturation within the tested concentration range | EC50 (RyR1; [Ca2+] 30 nM): 4 nM | EC50 (RyR1; [Ca2+], 30 µM): 9400 nM | maximum inhibitory effect on [3H]ryanodine binding (RyR1): ~50% | effect on [3H]ryanodine binding to RyR1 (RyR1): gradual inhibition at concentrations >1 μM

Structure (SMILES): CC/C(=C(\c1ccccc1)c1ccc(OCCN(C)C)cc1)c1ccccc1 [tamoxifen]
decrease of donor-only FLT as share of the FLT change in the donor-acceptor sample (mouse RyR2 NTR): > 50%

Structure (SMILES): O=C(c1ccc(Cl)cc1)N1CCN(c2ccc([N+](=O)[O-])c3ncccc23)CC1 [CPNQ, 5-[4-(4-Chlorobenzoyl)-1-piperazinyl]-8-nitroquinoline]
EC50 (RyR2; [Ca2+] 30 nM): 20 nM | effect on [3H]ryanodine binding to RyR2 (RyR2; 30 nM Ca2+): inhibitory trend | effect on [3H]ryanodine binding to RyR2 (RyR2; 30 μM Ca2+): did not significantly alter | ΔFLT (mouse RyR2 NTR; AC-NTR biosensor): ≈ 0.35 ns | EC50 (mouse RyR2 NTR; [1]): 1300 nM | EC50 (RyR1; [Ca2+] 30 nM): 20 nM | maximum inhibitory effect on [3H]ryanodine binding (RyR1): approximately 30% | effect on [3H]ryanodine binding to RyR1 (RyR1): only slightly affected

Structure (SMILES): C=CC[C@@H]1/C=C(\C)C[C@H](C)C[C@H](OC)[C@H]2O[C@@](O)(C(=O)C(=O)N3CCCC[C@H]3C(=O)O[C@H](/C(C)=C/[C@@H]3CC[C@@H](O)[C@H](OC)C3)[C@H](C)[C@@H](O)CC1=O)[C@H](C)C[C@@H]2OC [tacrolimus, (3S,4R,5S,8R,9E,12S,14S,15R,16S,18R,19R,26aS)-5,19-dihydroxy-3-{(1E)-1-[(1R,3R,4R)-4-hydroxy-3-methoxycyclohexyl]prop-1-en-2-yl}-14,16-dimethoxy-4,10,12,18-tetramethyl-8-(prop-2-en-1-yl)-5,6,8,11,12,13,14,15,16,17,18,19,24,25,26,26a-hexadecahydro-3H-15,19-epoxypyrido[2,1-c][1,4]oxazacyclotricosine-1,7,20,21(4H,23H)-tetrone]
effect on RyR (RyR): activatory | ΔFLT (mouse RyR2 NTR; AC-NTR biosensor): ≈ 0.1 ns

Structure (SMILES): CSc1c(C)c(SC)n2ccncc12 [oltipraz M2, 7-Methyl-6,8-bis(methylthio)-pyrrolo[1,2-a]pyrazine]
effect on [3H]ryanodine binding to RyR2 (RyR2; 30 nM Ca2+): almost no effect | effect on [3H]ryanodine binding to RyR2 (RyR2; 30 μM Ca2+): did not significantly alter | EC50 (mouse RyR2 NTR; [1]): 21700 nM | saturation of FRET dose-response (mouse RyR2 NTR): did not reach saturation within the tested concentration range | EC50 (RyR1; [Ca2+] 30 nM): 5 nM | maximum inhibitory effect on [3H]ryanodine binding (RyR1): ~50% | effect on [3H]ryanodine binding to RyR1 (RyR1): only slightly affected

Structure (SMILES): COc1ccc(/C=C/c2nc(NCCCN(C)C)c3ccccc3n2)cc1 [CP-31398]
decrease of donor-only FLT as share of the FLT change in the donor-acceptor sample (mouse RyR2 NTR): > 50%

Structure (SMILES): CO[C@H]1C[C@@H]2CC[C@@H](C)[C@@](O)(O2)C(=O)C(=O)N2CCCC[C@H]2C(=O)O[C@H]([C@H](C)C[C@@H]2CC[C@@H](OC(=O)C(C)(CO)CO)[C@H](OC)C2)CC(=O)[C@H](C)/C=C(\C)[C@@H](O)[C@@H](OC)C(=O)[C@H](C)C[C@H](C)/C=C/C=C/C=C/1C [temsirolimus, (1R,2R,4S)-4-{(2R)-2-[(3S,6R,7E,9R,10R,12R,14S,15E,17E,19E,21S,23S,26R,27R,34aS)-9,27-dihydroxy-10,21-dimethoxy-6,8,12,14,20,26-hexamethyl-1,5,11,28,29-pentaoxo-1,4,5,6,9,10,11,12,13,14,21,22,23,24,25,26,27,28,29,31,32,33,34,34a-tetracosahydro-3H-23,27-epoxypyrido[2,1-c][1,4]oxazacyclohentriacontin-3-yl]propyl}-2-methoxycyclohexyl 3-hydroxy-2-(hydroxymethyl)-2-methylpropanoate]
EC50 (mouse RyR2 NTR; read-out: EC50 (FRET dose-response), hits that increased FLT): < 1000 nM
